Tested on: A375 multi-cell spheroids with HUVEC/MSC, viability
Experiment: Anticancer human tumor A375 cell line growth inhibition [GQUAD];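 note: spheroids exposed to compounds for seven days before readout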
Conditions: for IC50: curve of first compound; for viability, T/C: stronger effect = lower value
Summary of the method: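 Tumor cells were grown as complex spheroids with HUVEC endothelial cells and mesenchymal stem cells as stroma. G-quadruplex stabilizers were combined with targeted agents over half-log dilutions from near the clinical Cmax, or from 10 microM.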

[1] = second compound 0.0316 µM, first compound 0.0316 µM
[2] = second compound 0.0316 µM, first compound 0.1 µM
[3] = second compound 0.0316 µM, first compound 0.316 µM
[4] = second compound 0.0316 µM, first compound 1 µM
[5] = second compound 0.0316 µM, first compound 3.16 µM
[6] = second compound 0.0316 µM, first compound 10 µM
[7] = second compound 0.1 µM, first compound 0.0316 µM
[8] = second compound 0.1 µM, first compound 0.1 µM
[9] = second compound 0.1 µM, first compound 0.316 µM
[10] = second compound 0.1 µM, first compound 1 µM
[11] = second compound 0.1 µM, first compound 3.16 µM
[12] = second compound 0.1 µM, first compound 10 µM
[13] = second compound 0.316 µM, first compound 0.0316 µM
[14] = second compound 0.316 µM, first compound 0.1 µM
[15] = second compound 0.316 µM, first compound 0.316 µM
[16] = second compound 0.316 µM, first compound 1 µM
[17] = second compound 0.316 µM, first compound 3.16 µM
[18] = second compound 0.316 µM, first compound 10 µM
[19] = second compound 1 µM, first compound 0.0316 µM
[20] = second compound 1 µM, first compound 0.1 µM
[21] = second compound 1 µM, first compound 0.316 µM
[22] = second compound 1 µM, first compound 1 µM
[23] = second compound 1 µM, first compound 3.16 µM
[24] = second compound 1 µM, first compound 10 µM
[25] = second compound 3.16 µM, first compound 0.0316 µM
[26] = second compound 3.16 µM, first compound 0.1 µM
[27] = second compound 3.16 µM, first compound 0.316 µM
[28] = second compound 3.16 µM, first compound 1 µM
[29] = second compound 3.16 µM, first compound 3.16 µM
[30] = second compound 3.16 µM, first compound 10 µM
[31] = second compound 10 µM, first compound 0.0316 µM
[32] = second compound 10 µM, first compound 0.1 µM
[33] = second compound 10 µM, first compound 0.316 µM
[34] = second compound 10 µM, first compound 1 µM
[35] = second compound 10 µM, first compound 3.16 µM
[36] = second compound 10 µM, first compound 10 µM

SMILES: C#Cc1c(F)ccc2cc(O)cc(-c3ncc4c(N5CC6CCC(C5)N6)nc(OCC56CCCN5CC(F)C6)nc4c3F)c12 (stereo unspecified) + CN(C)c1ccc(Nc2c3ccc(NC(=O)CCN4CCCC4)cc3nc3cc(NC(=O)CCN4CCCC4)ccc23)cc1
- IC50 (second compound 0.0316 µM): > 10000 nM
- IC50 (second compound 0.1 µM): > 10000 nM
- IC50 (second compound 0.316 µM): > 10000 nM
- IC50 (second compound 1 µM): > 10000 nM
- IC50 (second compound 3.16 µM): > 10000 nM
- IC50 (second compound 10 µM): > 10000 nM
- viability, T/C [1]: 111%
- viability, T/C [2]: 98.5%
- viability, T/C [3]: 101%
- viability, T/C [4]: 108%
- viability, T/C [5]: 106%
- viability, T/C [6]: 112%
- viability, T/C [7]: 104%
- viability, T/C [8]: 103%
- viability, T/C [9]: 105%
- viability, T/C [10]: 108%
- viability, T/C [11]: 107%
- viability, T/C [12]: 107%
- viability, T/C [13]: 99.5%
- viability, T/C [14]: 98.4%
- viability, T/C [15]: 99.3%
- viability, T/C [16]: 109%
- viability, T/C [17]: 102%
- viability, T/C [18]: 98.6%
- viability, T/C [19]: 106%
- viability, T/C [20]: 98%
- viability, T/C [21]: 99.4%
- viability, T/C [22]: 109%
- viability, T/C [23]: 107%
- viability, T/C [24]: 98.1%
- viability, T/C [25]: 103%
- viability, T/C [26]: 98.7%
- viability, T/C [27]: 104%
- viability, T/C [28]: 97.2%
- viability, T/C [29]: 102%
- viability, T/C [30]: 103%
- viability, T/C [31]: 96.6%
- viability, T/C [32]: 102%
- viability, T/C [33]: 96.2%
- viability, T/C [34]: 96.3%
- viability, T/C [35]: 102%
- viability, T/C [36]: 102%

SMILES: CC(=O)O[C@H]1C(=O)[C@@]2(C)[C@H]([C@H](OC(=O)c3ccccc3)[C@]3(O)C[C@H](OC(=O)[C@H](O)[C@@H](NC(=O)c4ccccc4)c4ccccc4)C(C)=C1C3(C)C)[C@]1(OC(C)=O)CO[C@@H]1C[C@@H]2O + CN(C)c1ccc(Nc2c3ccc(NC(=O)CCN4CCCC4)cc3nc3cc(NC(=O)CCN4CCCC4)ccc23)cc1
- IC50 (second compound 0.0316 µM): 61.2 nM
- IC50 (second compound 0.1 µM): 61.3 nM
- IC50 (second compound 0.316 µM): 61 nM
- IC50 (second compound 1 µM): 61.7 nM
- IC50 (second compound 3.16 µM): 65.2 nM
- IC50 (second compound 10 µM): 55.5 nM
- viability, T/C [1]: 86.3%
- viability, T/C [2]: 23.1%
- viability, T/C [3]: 12.3%
- viability, T/C [4]: 11%
- viability, T/C [5]: 11.4%
- viability, T/C [6]: 10.6%
- viability, T/C [7]: 86.5%
- viability, T/C [8]: 23%
- viability, T/C [9]: 12.1%
- viability, T/C [10]: 13.2%
- viability, T/C [11]: 11.7%
- viability, T/C [12]: 12.9%
- viability, T/C [13]: 88.1%
- viability, T/C [14]: 21.3%
- viability, T/C [15]: 12.2%
- viability, T/C [16]: 10.6%
- viability, T/C [17]: 12.8%
- viability, T/C [18]: 15%
- viability, T/C [19]: 87.5%
- viability, T/C [20]: 23%
- viability, T/C [21]: 10.2%
- viability, T/C [22]: 12.8%
- viability, T/C [23]: 10.4%
- viability, T/C [24]: 12.9%
- viability, T/C [25]: 95.4%
- viability, T/C [26]: 23.2%
- viability, T/C [27]: 11.7%
- viability, T/C [28]: 10.7%
- viability, T/C [29]: 11.6%
- viability, T/C [30]: 11.9%
- viability, T/C [31]: 76.8%
- viability, T/C [32]: 22%
- viability, T/C [33]: 13.3%
- viability, T/C [34]: 11.7%
- viability, T/C [35]: 10.9%
- viability, T/C [36]: 12.4%

SMILES: CC(C)(O)C1CCC(Nc2ccc3ncc(-c4cccc(C(F)(F)F)c4)n3n2)CC1 (stereo unspecified) + CN(C)c1ccc(Nc2c3ccc(NC(=O)CCN4CCCC4)cc3nc3cc(NC(=O)CCN4CCCC4)ccc23)cc1
- IC50 (second compound 0.0316 µM): > 10000 nM
- IC50 (second compound 0.1 µM): > 10000 nM
- IC50 (second compound 0.316 µM): > 10000 nM
- IC50 (second compound 1 µM): > 10000 nM
- IC50 (second compound 3.16 µM): 10000 nM
- IC50 (second compound 10 µM): 2180 nM
- viability, T/C [1]: 95.9%
- viability, T/C [2]: 93%
- viability, T/C [3]: 95.7%
- viability, T/C [4]: 104%
- viability, T/C [5]: 84%
- viability, T/C [6]: 92.9%
- viability, T/C [7]: 93.1%
- viability, T/C [8]: 92.6%
- viability, T/C [9]: 96.6%
- viability, T/C [10]: 90.6%
- viability, T/C [11]: 79.2%
- viability, T/C [12]: 88.5%
- viability, T/C [13]: 99%
- viability, T/C [14]: 91.2%
- viability, T/C [15]: 88.9%
- viability, T/C [16]: 104%
- viability, T/C [17]: 80.6%
- viability, T/C [18]: 92.8%
- viability, T/C [19]: 96.7%
- viability, T/C [20]: 92.4%
- viability, T/C [21]: 97.7%
- viability, T/C [22]: 95.1%
- viability, T/C [23]: 75.9%
- viability, T/C [24]: 85%
- viability, T/C [25]: 93.7%
- viability, T/C [26]: 99.2%
- viability, T/C [27]: 97.7%
- viability, T/C [28]: 98.1%
- viability, T/C [29]: 49.6%
- viability, T/C [30]: 68.7%
- viability, T/C [31]: 94.6%
- viability, T/C [32]: 91.2%
- viability, T/C [33]: 96.7%
- viability, T/C [34]: 84.9%
- viability, T/C [35]: 25.9%
- viability, T/C [36]: 40.9%
